Source: PMC8286840, “Identifying SARS-CoV-2 antiviral compounds by screening for small molecule inhibitors of Nsp3 papain-like protease” (Biochemical Journal, 2021)
Where a name gives a salt, the structure may show the parent alone. Read-outs that look alike come from different tables or passages of the source.

Experiments:
[1] = molecular target: T1, SARS-CoV-2 PLpro (nsp3 1564–1878) (Severe acute respiratory syndrome coronavirus 2, UniProt P0DTD1); assay: biochemical; design: FRET-quenched peptide (Pro3) cleavage by PLpro, 10 min pre-incubation, slope over 20 min, normalised to no-compound control; details: low concentration screen, read-out: % of control remaining
[2] = molecular target: T1, SARS-CoV-2 PLpro (nsp3 1564–1878); assay: biochemical; design: FRET-quenched peptide (Pro3) cleavage by PLpro, 10 min pre-incubation, slope over 20 min, normalised to no-compound control; details: high concentration screen, read-out: % of control remaining

C=C(CC)C(=O)c1ccc(OCC(=O)O)c(Cl)c1Cl [Ethacrynic Acid]
remaining activity at 1.25 µM ([1]; Well no.=1865): 95.6%
remaining activity at 3.75 µM ([2]; Well no.=1865): 94.6%

CC(=O)O[C@]1(C(C)=O)CC[C@H]2[C@@H]3C=C(Cl)C4=CC(=O)CC[C@]4(C)[C@H]3CC[C@@]21C [Chlormadinone Acetate]
remaining activity at 1.25 µM ([1]; Well no.=2225): 97.4%
remaining activity at 3.75 µM ([2]; Well no.=2225): 96.7%

C[C@H]1CC[C@@H]2N(C1)C[C@H]1[C@@H]3C[C@H]4[C@@H](CC(=O)[C@H]5C[C@@H](O)CC[C@@]54C)[C@@H]3CC[C@H]1[C@]2(C)O [Imperialine]
remaining activity at 1.25 µM ([1]; Well no.=3155): 93.8%
remaining activity at 3.75 µM ([2]; Well no.=3155): 101%

CCOc1cc2ncc(C#N)c(Nc3ccc(F)c(Cl)c3)c2cc1NC(=O)/C=C/CN(C)C [(2E)-N-[4-(3-chloro-4-fluoroanilino)-3-cyano-7-ethoxy-6-quinolinyl]-4-(dimethylamino)-2-butenamide]
remaining activity at 1.25 µM ([1]; Well no.=5707): 101%
remaining activity at 3.75 µM ([2]; Well no.=5707): 102%

CN(C)CCOC(C)(c1ccccc1)c1ccc(Cl)cc1 (stereo not shown) [Chlorphenoxamine]
remaining activity at 1.25 µM ([1]; Well no.=6219): 102%
remaining activity at 3.75 µM ([2]; Well no.=6219): 100%

C[N+](C)(C)CCOC(=O)CCC(=O)OCC[N+](C)(C)C [Succinylcholine]
remaining activity at 1.25 µM ([1]; Well no.=2294): 90.2%
remaining activity at 3.75 µM ([2]; Well no.=2294): 95.9%

C=CCCCCCCCCCC(=O)O [11-Dodecenoic acid]
remaining activity at 1.25 µM ([1]; Well no.=4258): 98.8%
remaining activity at 3.75 µM ([2]; Well no.=4258): 96.7%

CN(C)c1nc(N(C)C)nc(N(C)C)n1 [Altretamine]
remaining activity at 1.25 µM ([1]; Well no.=8): 96%
remaining activity at 1.25 µM ([1]; Well no.=2081): 101%
remaining activity at 3.75 µM ([2]; Well no.=8): 98.2%
remaining activity at 3.75 µM ([2]; Well no.=2081): 101%

NC(=O)C(c1ccccc1)(c1ccccc1)[C@@H]1CCN(CCc2ccc3c(c2)CCO3)C1 [Darifenacin (hydrobromide)]
remaining activity at 1.25 µM ([1]; Well no.=7341): 95.3%
remaining activity at 3.75 µM ([2]; Well no.=7341): 89.4%

N[C@H](C(=O)O)c1cccc(O)c1 (racemic)
remaining activity at 1.25 µM ([1]; Well no.=476): 101%
remaining activity at 3.75 µM ([2]; Well no.=476): 97%

CCN(CC)CCN(Cc1ccc(-c2ccc(C(F)(F)F)cc2)cc1)C(=O)Cn1c(SCc2ccc(F)cc2)nc(=O)c2c1CCC2 [Darapladib (SB-480848)]
remaining activity at 1.25 µM ([1]; Well no.=8576): 101%
remaining activity at 3.75 µM ([2]; Well no.=8576): 98.6%

CCCCC[C@H](O)CC(=O)CCc1ccc(O)c(OC)c1 [Gingerol]
remaining activity at 1.25 µM ([1]; Well no.=3319): 97%
remaining activity at 3.75 µM ([2]; Well no.=3319): 101%

N[C@H](CCC(=O)NCS(=O)(=O)O)C(=O)O [gamma-D-Glutamylaminomethylsulfonic acid]
remaining activity at 1.25 µM ([1]; Well no.=652): 92.4%
remaining activity at 3.75 µM ([2]; Well no.=652): 94%

Cc1ccccc1-n1c(Cn2cnc3c(N)ncnc32)nc2cccc(C)c2c1=O [IC87114]
remaining activity at 1.25 µM ([1]; Well no.=2945): 98.3%
remaining activity at 3.75 µM ([2]; Well no.=2945): 97.6%

CN1CC(=O)NC1=N [Creatinine]
remaining activity at 1.25 µM ([1]; Well no.=5324): 96.6%
remaining activity at 1.25 µM ([1]; Well no.=6967): 104%
remaining activity at 3.75 µM ([2]; Well no.=5324): 92.2%
remaining activity at 3.75 µM ([2]; Well no.=6967): 101%

CS(=O)(=O)n1cc2c(n1)CN([C@H]1CO[C@H](c3cc(F)ccc3F)[C@@H](N)C1)C2 [Omarigliptin (MK-3102)]
remaining activity at 1.25 µM ([1]; Well no.=8824): 98.1%
remaining activity at 3.75 µM ([2]; Well no.=8824): 96.5%

CC1(C)O[C@@H]2C[C@H]3[C@@H]4C[C@H](F)C5=CC(=O)C=C[C@]5(C)[C@@]4(F)[C@@H](O)C[C@]3(C)[C@]2(C(=O)CO)O1 [Fluocinolone acetonide]
remaining activity at 1.25 µM ([1]; Well no.=2126): 97.3%
remaining activity at 3.75 µM ([2]; Well no.=2126): 98.4%

Cc1ccccc1/C=C/C1=NCCN1 [Metrazoline oxalate]
remaining activity at 1.25 µM ([1]; Well no.=1074): 88.9%
remaining activity at 3.75 µM ([2]; Well no.=1074): 89.7%

Oc1ccc2ccccc2c1SSc1c(O)ccc2ccccc12 [p21-Activated Kinase Inhibitor III, IPA-3]
remaining activity at 1.25 µM ([1]; Well no.=2525): 99.9%
remaining activity at 3.75 µM ([2]; Well no.=2525): 102%

Cc1noc(-c2ccc(-c3ccc(CC(=O)O)cc3)cc2)c1NC(=O)O[C@H](C)c1ccccc1Cl [AM966]
remaining activity at 1.25 µM ([1]; Well no.=6941): 104%
remaining activity at 3.75 µM ([2]; Well no.=6941): 102%

CCCCCCCCCCCCCCC[C@@H](O)[C@H](CO)NC(=O)CCCCCCC [C8 Dihydroceramide]
remaining activity at 1.25 µM ([1]; Well no.=4395): 99.8%
remaining activity at 3.75 µM ([2]; Well no.=4395): 99.1%
